Test [1] deals with T1, human GLP-1R (Homo sapiens, UniProt P43220). Briefly: GLP-1R HEK293 cell membrane [35S]GTPγS binding assay. In kind it is biochemical. Also on record: expressed in transfected cells; host or cells: HEK293 cells expressing human GLP-1R; membranes. As to conditions: HEK293 cell membranes expressing human GLP-1R, [35S]GTPγS binding; read-out: hGLP1R GTPgS Rel EC50 nM (SEM, n). Summed up: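 Agonist-driven Gαs activation read as [35S]GTPγS ([…]) binding to receptor-expressing HEK293 membranes, 30 min at room temperature, pH 7.4. Detection by anti-Gαs immunocapture on scintillation beads; EC50 derived from four-parameter logistic concentration-response fit.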
T1 sequence (P43220 24-463): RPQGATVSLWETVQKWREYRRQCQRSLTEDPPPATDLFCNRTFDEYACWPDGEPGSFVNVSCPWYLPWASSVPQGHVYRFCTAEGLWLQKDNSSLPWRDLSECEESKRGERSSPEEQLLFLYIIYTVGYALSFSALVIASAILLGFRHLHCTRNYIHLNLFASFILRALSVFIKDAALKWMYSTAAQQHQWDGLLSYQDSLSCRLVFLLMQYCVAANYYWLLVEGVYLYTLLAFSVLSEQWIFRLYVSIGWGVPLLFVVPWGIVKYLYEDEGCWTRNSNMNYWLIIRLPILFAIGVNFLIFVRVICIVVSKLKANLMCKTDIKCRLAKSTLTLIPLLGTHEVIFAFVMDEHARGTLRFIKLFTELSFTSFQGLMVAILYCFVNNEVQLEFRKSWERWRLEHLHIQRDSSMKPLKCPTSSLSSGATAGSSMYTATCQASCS
A general note: GTPγS is a poorly hydrolysed GTP analogue; its binding reports G protein activation.

Test [2] deals with T2, gastric inhibitory peptide receptor (GIPR) (Homo sapiens, UniProt P48546).
T2 sequence (P48546 22-466): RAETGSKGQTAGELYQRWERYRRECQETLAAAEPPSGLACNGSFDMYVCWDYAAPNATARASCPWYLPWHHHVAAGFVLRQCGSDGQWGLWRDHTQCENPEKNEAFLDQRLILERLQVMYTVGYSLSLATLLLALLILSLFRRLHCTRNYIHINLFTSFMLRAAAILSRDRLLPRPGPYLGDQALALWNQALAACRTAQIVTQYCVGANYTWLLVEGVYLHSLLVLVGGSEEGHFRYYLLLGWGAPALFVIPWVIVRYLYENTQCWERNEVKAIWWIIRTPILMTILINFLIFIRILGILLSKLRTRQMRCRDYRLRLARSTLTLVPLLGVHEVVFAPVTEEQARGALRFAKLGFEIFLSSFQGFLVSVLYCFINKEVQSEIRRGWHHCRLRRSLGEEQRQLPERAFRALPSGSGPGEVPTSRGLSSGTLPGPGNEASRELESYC
Briefly: cAMP pharmacological functional assay in presence of casein, hGIPR. Particulars: HEK293 cells expressing hGIPR, 0.1% Casein, geometric mean; read-out: hGIPR cAMP Rel EC50 nM (SEM, n). In kind it is cell-based.

The target of test [3] is T1, human GLP-1R. In words: GLP-1R CHO cell β-arrestin recruitment assay. In kind it is cell-based. Also on record: host or cells: CHO-K1 PathHunter cells, assay-ready frozen. Particulars: for EC50: CHO-K1 cells; for hGLP1R B-Arrestin2 % Top: normalized to GLP-1 maximum control. The method, boiled down:
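Peptide-induced β-arrestin-2 recruitment measured by enzyme-fragment complementation luminescence after 90 min at 37 °C plus 60 min detection at RT.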
For orientation: Recruitment of arrestin is a read-out of receptor activation apart from second messengers.

Test [4] addresses human GLP-1 receptor (GLP-1R) (Homo sapiens, UniProt P43220). Briefly: cAMP pharmacological functional assay in presence of casein, hGLP-1R. In kind it is cell-based. Particulars: HEK293 cells expressing hGLP-1R, 0.1% Casein, geometric mean; read-out: hGLP1R cAMP Rel EC50 nM (SEM, n).
Setting [5] is: PathHunter β-arrestin-2 recruitment, 0.1% casein, read-out: hGLP1R B-Arrestin2 Rel EC50 uM (SEM, n).

Structures are written as SMILES. Numbered stars: 1 amine (or outer) side, 2 acyl side, 3 side chain; on linkers, the order of the positions; unused ones are H or OH. Square brackets hold non-standard residues; d marks the D form. Side chains are listed from the residue outwards. Peptide text beside a SMILES is read from it. * marks the point of attachment. C20 diacid = O=C(O)CCCCCCCCCCCCCCCCCCC(=O)*; C18 diacid = O=C(O)CCCCCCCCCCCCCCCCC(=O)*; γGlu = O=C(O)[C@H](CCC(=O)[*:2])N[*:1]; αMeY = C[C@](N)(Cc1ccc(O)cc1)C(=O)O; αMeL = CC(C)C[C@](C)(N)C(=O)O; Orn = NCCC[C@H](N)C(=O)O; Dab = NCC[C@H](N)C(=O)O; AEEA = NCCOCCOCC(=O)O; Aib = CC(C)(N)C(=O)O

Sequence of human GLP-1 receptor (GLP-1R) (P43220 24-463): as the sequence (P43220 24-463) above

Consider `CC[C@H](C)[C@H](NC(=O)[C@H](CC(C)C)NC(=O)[C@](C)(Cc1ccc(O)cc1)NC(=O)[C@H](CCC(=O)O)NC(=O)[C@@H](NC(=O)[C@H](Cc1ccccc1)NC(=O)[C@H](CCC(=O)O)NC(=O)C(C)(C)NC(=O)[C@H](CCC(N)=O)NC(=O)[C@H](C)NC(=O)[C@H](CCCCNC(=O)COCCOCCNC(=O)COCCOCCNC(=O)CC[C@H](NC(=O)CCCCCCCCCCCCCCCCC(=O)O)C(=O)O)NC(=O)[C@H](CCCN)NC(=O)[C@H](CC(=O)O)NC(=O)[C@H](CC(C)C)NC(=O)[C@](C)(CC(C)C)NC(=O)[C@@H](NC(=O)[C@H](CO)NC(=O)[C@H](Cc1ccc(O)cc1)NC(=O)[C@H](CC(=O)O)NC(=O)[C@H](CO)NC(=O)[C@@H](NC(=O)[C@H](Cc1ccccc1)NC(=O)[C@@H](NC(=O)CNC(=O)[C@H](CCC(=O)O)NC(=O)C(C)(C)NC(=O)[C@H](N)Cc1ccc(O)cc1)[C@@H](C)O)[C@@H](C)O)[C@@H](C)CC)[C@@H](C)CC)C(=O)N[C@@H](C)C(=O)NCC(=O)NCC(=O)N1CCC[C@H]1C(=O)N[C@@H](CO)C(=O)N[C@@H](CO)C(=O)NCC(=O)N[C@@H](C)C(=O)N1CCC[C@H]1C(=O)N1CCC[C@H]1C(=O)N1CCC[C@H]1C(=O)N[C@@H](CO)C(N)=O` [Example 375] (H-[dY][Aib]EGTFTSDYSI[αMeL]LD[Orn]K([AEEA-AEEA-γGlu-C18 diacid])AQ[Aib]EFIE[αMeY]LIAGGPSSGAPPPS-NH2), for which the EC50 came to 0.419 nM in test [1], 0.0471 nM in test [2], 0.0114 µM in test [3] (setting [5]) and 0.152 nM in test [4]. Also, in test [3], the “hGLP1R B-Arrestin2 % Top” value stood at 24.2%.
For the compound `CC[C@H](C)[C@H](NC(=O)[C@H](CC(C)C)NC(=O)[C@H](Cc1ccc(O)cc1)NC(=O)[C@H](CCC(=O)O)NC(=O)[C@@H](NC(=O)[C@H](Cc1ccccc1)NC(=O)[C@H](CCC(=O)O)NC(=O)C(C)(C)NC(=O)[C@H](CCC(N)=O)NC(=O)[C@H](C)NC(=O)[C@H](CCCCNC(=O)COCCOCCNC(=O)CC[C@H](NC(=O)CCCCCCCCCCCCCCCCCCC(=O)O)C(=O)O)NC(=O)[C@H](CCCCN)NC(=O)[C@H](CC(=O)O)NC(=O)[C@H](CC(C)C)NC(=O)[C@](C)(CC(C)C)NC(=O)[C@@H](NC(=O)[C@H](CO)NC(=O)[C@H](Cc1ccc(O)cc1)NC(=O)[C@H](CC(=O)O)NC(=O)[C@H](CO)NC(=O)[C@@H](NC(=O)[C@H](Cc1ccccc1)NC(=O)[C@@H](NC(=O)CNC(=O)[C@H](CCC(=O)O)NC(=O)C(C)(C)NC(=O)[C@H](N)Cc1ccc(O)cc1)[C@@H](C)O)[C@@H](C)O)[C@@H](C)CC)[C@@H](C)CC)C(=O)N[C@@H](C)C(=O)NCC(=O)NCC(=O)N1CCC[C@H]1C(=O)N[C@@H](CO)C(=O)N[C@@H](CO)C(=O)NCC(=O)N[C@@H](C)C(=O)N1CCC[C@H]1C(=O)N1CCC[C@H]1C(=O)N1CCC[C@H]1C(=O)N[C@@H](CO)C(N)=O` [Example 378] (H-[dY][Aib]EGTFTSDYSI[αMeL]LDKK([AEEA-γGlu-C20 diacid])AQ[Aib]EFIEYLIAGGPSSGAPPPS-NH2), the 50% effective concentration (EC50) is 0.359 nM in test [1]; 0.067 nM in test [2]; greater than 10.2 µM in test [3] (0.1% w/v hydrolyzed Casein, read-out: hGLP1R B-Arrestin2 Rel EC50); greater than 10.2 µM in test [3] (setting [5]); 0.191 nM in test [4].
Regarding `CC[C@H](C)[C@H](NC(=O)[C@H](CC(C)C)NC(=O)[C@](C)(Cc1ccc(O)cc1)NC(=O)[C@H](CCC(=O)O)NC(=O)[C@@H](NC(=O)[C@H](Cc1ccccc1)NC(=O)[C@H](C)NC(=O)C(C)(C)NC(=O)[C@H](CCC(N)=O)NC(=O)[C@H](C)NC(=O)[C@H](CCCCNC(=O)COCCOCCNC(=O)COCCOCCNC(=O)CC[C@H](NC(=O)CCCCCCCCCCCCCCCCC(=O)O)C(=O)O)NC(=O)[C@H](CCCN)NC(=O)[C@H](CC(=O)O)NC(=O)[C@H](CC(C)C)NC(=O)[C@](C)(CC(C)C)NC(=O)[C@@H](NC(=O)[C@H](CO)NC(=O)[C@H](Cc1ccc(O)cc1)NC(=O)[C@H](CC(=O)O)NC(=O)[C@H](CO)NC(=O)[C@@H](NC(=O)[C@H](Cc1ccccc1)NC(=O)[C@@H](NC(=O)CNC(=O)[C@H](CCC(=O)O)NC(=O)C(C)(C)NC(=O)[C@H](N)Cc1ccc(O)cc1)[C@@H](C)O)[C@@H](C)O)[C@@H](C)CC)[C@@H](C)CC)C(=O)N[C@@H](C)C(=O)NCC(=O)NCC(=O)N1CCC[C@H]1C(=O)N[C@@H](CO)C(=O)N[C@@H](CO)C(=O)NCC(=O)N[C@@H](C)C(=O)N1CCC[C@H]1C(=O)N1CCC[C@H]1C(=O)N1CCC[C@H]1C(=O)N[C@@H](CO)C(N)=O` [Example 377] (H-[dY][Aib]EGTFTSDYSI[αMeL]LD[Orn]K([AEEA-AEEA-γGlu-C18 diacid])AQ[Aib]AFIE[αMeY]LIAGGPSSGAPPPS-NH2), the EC50 worked out at 0.356 nM in test [1], 0.0544 nM in test [2], 0.00532 µM in test [3] (setting [5]) and 0.136 nM in test [4]. The “hGLP1R B-Arrestin2 % Top” value in test [3] is 16.7%.
On the same counts, the results for `CC[C@H](C)[C@H](NC(=O)[C@H](CC(C)C)NC(=O)[C@H](Cc1ccc(O)cc1)NC(=O)[C@H](CCC(=O)O)NC(=O)[C@@H](NC(=O)[C@H](Cc1ccccc1)NC(=O)[C@H](C)NC(=O)C(C)(C)NC(=O)[C@H](CCC(N)=O)NC(=O)[C@H](C)NC(=O)[C@H](CCCCNC(=O)COCCOCCNC(=O)COCCOCCNC(=O)CC[C@H](NC(=O)CCCCCCCCCCCCCCCCCCC(=O)O)C(=O)O)NC(=O)[C@H](CCN)NC(=O)[C@H](CC(=O)O)NC(=O)[C@H](CC(C)C)NC(=O)[C@](C)(CC(C)C)NC(=O)[C@@H](NC(=O)[C@H](CO)NC(=O)[C@H](Cc1ccc(O)cc1)NC(=O)[C@H](CC(=O)O)NC(=O)[C@H](CO)NC(=O)[C@@H](NC(=O)[C@H](Cc1ccccc1)NC(=O)[C@@H](NC(=O)CNC(=O)[C@H](CCC(=O)O)NC(=O)C(C)(C)NC(=O)[C@H](N)Cc1ccc(O)cc1)[C@@H](C)O)[C@@H](C)O)[C@@H](C)CC)[C@@H](C)CC)C(=O)N[C@@H](C)C(=O)NCC(=O)NCC(=O)N1CCC[C@H]1C(=O)N[C@@H](CO)C(=O)N[C@@H](CO)C(=O)NCC(=O)N[C@@H](C)C(=O)N1CCC[C@H]1C(=O)N1CCC[C@H]1C(=O)N1CCC[C@H]1C(=O)N[C@@H](CO)C(N)=O` [Example 347] (H-[dY][Aib]EGTFTSDYSI[αMeL]LD[Dab]K([AEEA-AEEA-γGlu-C20 diacid])AQ[Aib]AFIEYLIAGGPSSGAPPPS-NH2) are 0.759 nM, 0.0827 nM, 0.00542 µM, 0.102 nM and 24.6%.
The like results for `CC[C@H](C)[C@H](NC(=O)[C@H](CC(C)C)NC(=O)[C@H](Cc1ccc(O)cc1)NC(=O)[C@H](CCC(=O)O)NC(=O)[C@@H](NC(=O)[C@H](Cc1ccccc1)NC(=O)[C@H](CCC(=O)O)NC(=O)C(C)(C)NC(=O)[C@H](CCC(N)=O)NC(=O)[C@H](C)NC(=O)[C@H](CCCCNC(=O)COCCOCCNC(=O)CC[C@H](NC(=O)CCCCCCCCCCCCCCCCCCC(=O)O)C(=O)O)NC(=O)[C@H](CCCN)NC(=O)[C@H](CC(=O)O)NC(=O)[C@H](CC(C)C)NC(=O)[C@](C)(CC(C)C)NC(=O)[C@@H](NC(=O)[C@H](CO)NC(=O)[C@H](Cc1ccc(O)cc1)NC(=O)[C@H](CC(=O)O)NC(=O)[C@H](CO)NC(=O)[C@@H](NC(=O)[C@H](Cc1ccccc1)NC(=O)[C@@H](NC(=O)CNC(=O)[C@H](CCC(=O)O)NC(=O)C(C)(C)NC(=O)[C@H](N)Cc1ccc(O)cc1)[C@@H](C)O)[C@@H](C)O)[C@@H](C)CC)[C@@H](C)CC)C(=O)N[C@@H](C)C(=O)NCC(=O)NCC(=O)N1CCC[C@H]1C(=O)N[C@@H](CO)C(=O)N[C@@H](CO)C(=O)NCC(=O)N[C@@H](C)C(=O)N1CCC[C@H]1C(=O)N1CCC[C@H]1C(=O)N1CCC[C@H]1C(=O)N[C@@H](CO)C(N)=O` [Example 371] (H-[dY][Aib]EGTFTSDYSI[αMeL]LD[Orn]K([AEEA-γGlu-C20 diacid])AQ[Aib]EFIEYLIAGGPSSGAPPPS-NH2) were, in that order, 0.27 nM, 0.135 nM, 0.0142 µM, 0.132 nM and 21.7%.

The EC50 is the midpoint of the concentration-response curve.

For the origin of these results see patent publication US12252524B2, “GIP/GLP1 co-agonist compounds” (Eli Lilly and Company, priority 2018, dated 2025).
